Reference: patent US20210008541A1, “INSTRUMENT AND METHODS FOR AUTOMATED SAMPLE PREPARATION FOR MICROORGANISM IDENTIFICATION AND DIFFERENTIATION” (Accelerate Diagnostics, Inc., priority 2019, published 2021)

Assays:
ECOL_ATCC_25922 = assay: Disk diffusion inhibition of RAM ingredients on MHA plates; type: cell-based, Escherichia coli; settings: 100 μL dispensed on MHA plate, lawned with ECOL_ATCC_25922
Experimental: (§1) Thus, each of the ingredients was checked for potential inhibition. The first portion of this study was meant to determine the source of inhibition and to formulate different variations of a respiratory artificial matrix (RAM) to use as a pellet former. To complete this objective, 100 μL of each of the ingredients was dispensed onto the center of four different Mueller Hinton Agar (MHA) plates. After letting the plates dry for ˜2 hours they were lawned with the following four bacteria: ECOL_ATCC_25922, SAUR_ATCC_29213, PROV_ATCC_6380 and PRMI_IHMA_827374. The following day the plates were measured for zones of inhibition. Following this, the pellet former recipe was optimized to exclude non-sterile components. […] Many fresh positive specimens of varying viscosities were then tested with an assay that incorporated this pellet former by adding 500 μL to the capsule with 1500 μL of BAL or mini-BAL specimen.

SAUR_ATCC_29213 = assay: as above; type: cell-based, Staphylococcus aureus; settings: 100 μL dispensed on MHA plate, lawned with SAUR_ATCC_29213
Experimental: as §1

PROV_ATCC_6380 = assay: as above; type: cell-based, Proteus vulgaris; settings: 100 μL dispensed on MHA plate, lawned with PROV_ATCC_6380
Experimental: as §1

PRMI_IHMA_827374 = assay: as above; type: cell-based, Proteus mirabilis; settings: 100 μL dispensed on MHA plate, lawned with PRMI_IHMA_827374
Experimental: as §1

[1] = tested on: ECOL_ATCC_25922, SAUR_ATCC_29213, PROV_ATCC_6380 and PRMI_IHMA_827374; assay: Disk diffusion inhibition of RAM ingredients, all four lawned bacteria; type: cell-based

With `O=C(O)CN(CCN(CC(=O)O)CC(=O)O)CCN(CC(=O)O)CC(=O)O` [DTPA alone, DTPA] the “Disk Diffusion Inhibition (zone of inhibition)” value (from here on “Disk Diffusion Inhibition”) (ECOL_ATCC_25922) was 7 mm, the “Disk Diffusion Inhibition” value (SAUR_ATCC_29213) was 19 mm and the “Disk Diffusion Inhibition” value (PROV_ATCC_6380) was 26 mm. For the same compound, the “Disk Diffusion Inhibition” value (PRMI_IHMA_827374) was 30 mm and the “Inhibition by disk diffusion method” value [1] was “inhibited each of the organisms tested”.
